Data as given in patent US7323447B2, “Hepatitis C virus inhibitors” (Bristol-Myers Squibb Company, priority 2005, dated 2008).
Like-named read-outs stand apart in the source and are kept apart here.

Columns and labels:
[1] = biological target: T1, HCV NS3/4A protease complex (BMS strain) (UniProt P27958); experiment: FRET peptide assay to monitor HCV NS3/4A proteolytic activity, BMS strain; type: biochemical, Hepatitis C virus (genotype 1a); conditions: read-out: IC50 Range; HCV NS3/4A enzyme assay; Table 1
T1 construct: other: HCV NS3/4A enzyme assay; said of H77 and J4L6S; fused on or other part: Three-lysine solubilising tail at the NS4A C-terminus and a His tag from pET21b (Ni-NTA purification), for the H77 and J4L6S constructs
Text: HCV NS3 protease complexes, derived from the BMS strain, H77 strain or J4L6S strain, were generated, as described below. These purified recombinant proteins were generated for use in a homogeneous assay (see below) to provide an indication of how effective compounds of the present disclosure would be in inhibiting HCV NS3 proteolytic activity.
Serum from an HCV-infected patient was obtained from Dr. T. Wright, San Francisco Hospital. An engineered full-length cDNA (compliment deoxyribonucleic acid) template of the HCV genome (BMS strain) was constructed from DNA fragments obtained by reverse transcription-PCR (RT-PCR) of serum RNA (ribonucleic acid) and using primers selected on the basis of homology between other genotype 1a strains. From the determination of the entire genome sequence, a genotype 1a was assigned to the HCV isolate according to the classification of Simmonds et al. (See P Simmonds, K A Rose, S Graham, S W Chan, F McOmish, B C Dow, E A Follett, P L Yap and […] Marsden, J. Clin. Microbiol., 31(6), 1493-1503 (1993)). […] The infectious clones, H77 (1a genotype) and J4L6S (1b genotype) were obtained from R. Purcell (NIH) and the sequences are published in Genbank (AAB67036, see Yanagi, M., Purcell, R. H., Emerson, S. U. and Bukh, J. Proc. Natl. Acad. Sci. U.S.A. 94(16), 8738-8743 (1997); AF054247, see Yanagi, M., St Claire, M., Shapiro, M., Emerson, S. U., Purcell, R. H. and Bukh, J, Virology 244 (1), 161-172. (1998)).
NS3/4A protease complex-containing fractions were pooled and loaded on a desalting column Superdex-S200 pre-equilibrated with buffer D (25 mM HEPES, pH 7.5, 20% glycerol, 300 mM NaCl, 0.2% Triton X-100, 10 mM βME). Sample was loaded at a flow rate of 1 mL/min. NS3/4A protease complex-containing fractions were pooled and concentrated to approximately 0.5 mg/ml. The purity of the NS3/4A protease complexes, derived from the BMS, H77 and J4L6S strains, were judged to be greater than 90% by SDS-PAGE and mass spectrometry analyses. The enzyme was stored at −80° C., thawed on ice and diluted prior to use in assay buffer.
The purpose of this in vitro assay was to measure the inhibition of HCV NS3 protease complexes, derived from the BMS strain, H77 strain or J4L6S strain, as described above, by compounds of the present disclosure. This assay provides an indication of how effective compounds of the present disclosure would be in inhibiting HCV NS3 proteolytic activity.
In order to monitor HCV NS3/4A protease activity, an NS3/4A peptide substrate was used. The substrate was RET S1 (Resonance Energy Transfer Depsipeptide Substrate; AnaSpec, Inc. cat # 22991) (FRET peptide), described by Taliani et al. in Anal. Biochem. 240(2):60-67 (1996). The sequence of this peptide is loosely based on the NS4A/NS4B natural cleavage site for the HCV NS3 protease except there is an ester linkage rather than an amide bond at the cleavage site. The peptide also contains a fluorescence donor, EDANS, near one end of the peptide and an acceptor, DABCYL, near the other end. The fluorescence of the peptide is quenched by […] resonance energy transfer (RET) between the donor and the acceptor, but as the NS3 protease cleaves the peptide the products are released from RET quenching and the fluorescence of the donor becomes apparent.
The peptide substrate was incubated with one of the three recombinant NS3/4A protease complexes, in the absence or presence of a compound of the present disclosure. The inhibitory effects of a compound were determined by monitoring the formation of fluorescent reaction product in real time using a Cytofluor Series 4000.
Assay buffer: 50 mM HEPES, pH 7.5; 0.15 M NaCl; 0.1% Triton; 15% Glycerol; 10 mM βME. Substrate: 2 μM final concentration (from a 2 mM stock solution in DMSO stored at −20° C.). HCV NS3/4A protease type 1a (1b), 2-3 nM final concentration (from a 5 μM stock solution in 25 mM HEPES, pH 7.5, 20% glycerol, 300 mM NaCl, 0.2% Triton-X100, 10 mM βME). […]

[2] = test system: HCV replicon in HUH-7 cells; experiment: HCV replicon FRET assay; type: cell-based, Hepatitis C virus (strain 1b); conditions: Table 1
Text: An HCV replicon whole cell system was established as described by Lohmann V, Korner F, Koch J, Herian U, Theilmann L, Bartenschlager R., Science 285(5424): 110-3 (1999). This system enabled us to evaluate the effects of our HCV Protease compounds on HCV RNA replication. Briefly, using the HCV strain 1b sequence described in the Lohmann paper (Assession number: AJ238799), an HCV cDNA was synthesized by Operon Technologies, Inc. (Alameda, Calif.), and the full-length replicon was then assembled in plasmid pGem9zf(+) (Promega, Madison, Wis.) using standard molecular biology techniques. The replicon consists of (i) the HCV 5′ UTR fused to the first 12 amino acids of the capsid protein, (ii) the neomycin phosphotransferase gene (neo), (iii) the IRES from encephalomyocarditis virus (EMCV), and (iv) HCV NS3 to NS5B genes and the HCV 3′ UTR. Plasmid DNAs were linearized with ScaI and RNA transcripts were synthesized in vitro using the T7 MegaScript transcription kit (Ambion, Austin, Tex.) according to manufacturer's directions. In vitro transcripts of the cDNA were transfected into the human hepatoma cell line, HUH-7. […] Resulting cell lines were characterized for positive and negative strand RNA production and protein production over time.
The HCV replicon FRET assay was developed to monitor the inhibitory effects of compounds described in the disclosure on HCV viral replication. HUH-7 cells, constitutively expressing the HCV replicon, were grown in Dulbecco's Modified Eagle Media (DMEM) (Gibco-BRL) containing 10% Fetal calf serum (FCS) (Sigma) and 1 mg/ml G418 (Gibco-BRL). Cells were seeded the night before (1.5×10^4 cells/well) in 96-well tissue-culture sterile plates. Compound and no compound controls were prepared in DMEM containing 4% FCS, 1:100 Penicillin/Streptomysin (Gibco-BRL), 1:100 L-glutamine and 5% DMSO in the dilution plate (0.5% DMSO final concentration in the assay). Compound/DMSO mixes were added to the cells and incubated for 4 days at 37° C. After 4 days, cells were first assessed for cytotoxicity using alamar Blue (Trek Diagnotstic Systems) for a CC50 reading. The toxicity of compound (CC50) was determined by adding 1/10th volume of alamarBlue to the media incubating the cells. After 4 h, the fluorescence signal from each well was read, with an excitation wavelength at 530 nm and an emission wavelength of 580 nm, using the Cytofluor Series 4000 (Perspective Biosystems). Plates were then rinsed thoroughly with Phosphate-Buffered Saline (PBS) (3 times 150 μl). The cells were lysed with 25 μl of a lysis assay reagent containing an HCV protease substrate (5× cell Luciferase cell culture lysis reagent (Promega #E153A) diluted to 1× with distilled water, NaCl added to 150 mM final, the FRET peptide substrate (as described for the enzyme assay above) diluted to 10 μM final from a 2 mM stock in 100% DMSO. The plate was then placed into the Cytofluor 4000 instrument which had been set to 340 nm excitation/490 nm emissions, automatic mode for 21 cycles and the plate read in a kinetic mode. EC50 determinations were carried out as described for the IC50 determinations.

[3] = read-out: EC50 Range, HCV replicon cell assay
[4] = Hepatitis C virus, Huh-7, read-out: EC50 Range, HCV replicon cell assay

T1 sequence (P27958 1027-1657, one chain of several): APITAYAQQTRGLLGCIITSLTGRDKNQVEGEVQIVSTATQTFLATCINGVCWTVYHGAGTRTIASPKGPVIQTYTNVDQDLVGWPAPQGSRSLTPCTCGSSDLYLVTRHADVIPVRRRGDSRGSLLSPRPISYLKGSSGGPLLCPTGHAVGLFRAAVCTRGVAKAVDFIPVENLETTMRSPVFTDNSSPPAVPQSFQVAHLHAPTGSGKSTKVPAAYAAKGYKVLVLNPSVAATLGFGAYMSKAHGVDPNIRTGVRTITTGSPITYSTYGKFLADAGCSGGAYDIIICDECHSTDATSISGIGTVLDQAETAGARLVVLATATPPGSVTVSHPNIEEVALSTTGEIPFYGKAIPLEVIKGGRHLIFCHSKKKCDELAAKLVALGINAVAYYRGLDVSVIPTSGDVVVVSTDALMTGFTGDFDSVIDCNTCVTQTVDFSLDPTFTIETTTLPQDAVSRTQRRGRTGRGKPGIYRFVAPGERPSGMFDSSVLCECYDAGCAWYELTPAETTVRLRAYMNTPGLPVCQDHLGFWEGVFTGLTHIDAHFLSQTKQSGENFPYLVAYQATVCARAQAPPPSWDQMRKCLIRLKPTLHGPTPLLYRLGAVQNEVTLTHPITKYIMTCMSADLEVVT

| SMILES | IC50 [1] | EC50 [2, 3] | EC50 [2, 4] |
| --- | --- | --- | --- |
| C=C[C@@H]1C[C@]1(NC(=O)[C@@H]1C[C@@H](Oc2nccc3cc(OC)ccc23)CN1C(=O)[C@@H](O)C(C)C)C(=O)NS(=O)(=O)C1CC1 (stereo in doubt) [Example 52Compound 52] | 100 to 1000 nM | > 5000 nM |  |
| C=C[C@@H]1C[C@]1(NC(=O)[C@@H]1C[C@@H](Oc2nccc3ccccc23)CN1C(=O)[C@@H](OC(=O)NC1CCCCC1)C(C)(C)C)C(=O)NS(=O)(=O)C1CC1 [Example 27] | < 100 nM |  | 500 to 5000 nM |
| C=C[C@@H]1C[C@]1(NC(=O)[C@@H]1C[C@@H](Oc2cc(-c3ccccc3)nc3cc(OC)ccc23)CN1C(=O)C(O)c1ccccc1)C(=O)NS(=O)(=O)C1CC1 (stereo partly shown) [Example 14] | 100 to 1000 nM |  | > 5000 nM |
| C=C[C@@H]1C[C@]1(NC(=O)[C@@H]1C[C@@H](Oc2nccc3cc(OC)ccc23)CN1C(=O)[C@@H](OC(=O)NC1CCCC1)C(C)C)C(=O)NS(=O)(=O)C1CC1 [Example 51Compound 51] | < 100 nM | 500 to 5000 nM |  |
| C=C[C@@H]1C[C@]1(NC(=O)[C@@H]1C[C@@H](Oc2cc(-c3ccccc3)nc3cc(OC)ccc23)CN1C(=O)[C@@H](O)C(C)C)C(=O)NS(=O)(=O)C1CC1 (stereo in doubt) [Example 4,Compound 5] | < 100 nM |  | 500 to 5000 nM |
| C=C[C@@H]1C[C@]1(NC(=O)[C@@H]1C[C@@H](Oc2cc(-c3ccccc3)nc3cc(OC)ccc23)CN1C(=O)[C@@H](OC(=O)Nc1ccccc1)C(C)(C)C)C(=O)NS(=O)(=O)C1CC1 [Example 5,Compound 4] | < 100 nM |  | < 500 nM |
| C=C[C@@H]1C[C@]1(NC(=O)[C@@H]1C[C@@H](Oc2cc(-c3ccccc3)nc3cc(OC)ccc23)CN1C(=O)[C@@H](OC(=O)NC1CCCC1)C(C)(C)C)C(=O)NS(=O)(=O)C1CC1 [Example 5,Compound 3] | < 100 nM |  | < 500 nM |
| C=C[C@@H]1C[C@]1(NC(=O)[C@@H]1C[C@@H](Oc2cc(-c3ccccc3)nc3cc(OC)ccc23)CN1C(=O)C(O)CC(C)C)C(=O)NS(=O)(=O)C1CC1 (stereo partly shown) [Example 4,Compound 2] | 100 to 1000 nM |  | 500 to 5000 nM |
| C=C[C@@H]1C[C@]1(NC(=O)[C@@H]1C[C@@H](Oc2cc(-c3ccccc3)nc3cc(OC)ccc23)CN1C(=O)[C@@H](OC(=O)Nc1ccc(OC)cc1)C(C)(C)C)C(=O)NS(=O)(=O)C1CC1 [Example 5,Compound 5] | 100 to 1000 nM |  | 500 to 5000 nM |
| CCC1C[C@]1(NC(=O)[C@@H]1C[C@@H](Oc2cc(-c3ccccc3)nc3cc(OC)ccc23)CN1C(=O)C(O)Cc1c[nH]cn1)C(=O)NS(=O)(=O)C1CC1 (stereo partly shown) [Example 16] | 100 to 1000 nM |  | > 5000 nM |
| C=C[C@@H]1C[C@]1(NC(=O)[C@@H]1C[C@@H](Oc2nc(-c3ccc(OC(F)(F)F)cc3)cc3cc(OC)ccc23)CN1C(=O)[C@@H](OC(=O)NC(C)(C)C)C(C)(C)C)C(=O)NS(=O)(=O)C1CC1 [Example 23] | < 100 nM |  | 500 to 5000 nM |
| C=C[C@@H]1C[C@]1(NC(=O)[C@@H]1C[C@@H](Oc2nc(-c3ccc(OC(F)(F)F)cc3)cc3cc(OC)ccc23)CN1C(=O)[C@@H](O)[C@@H](C)CC)C(=O)NS(=O)(=O)C1CC1 [Example 61Compound 61] | 100 to 1000 nM |  | 500 to 5000 nM |
| C=C[C@@H]1C[C@]1(NC(=O)[C@@H]1CC(Oc2nc(-c3ccc(OC(F)(F)F)cc3)cc3cc(OC)ccc23)CN1C(=O)[C@@H](O)C(C)(C)C)C(=O)NS(=O)(=O)C1CC1 (stereo partly shown) [Example 20] | < 100 nM |  | 500 to 5000 nM |
| C=C[C@@H]1C[C@]1(NC(=O)[C@@H]1C[C@@H](Oc2cc(-c3ccccc3)nc3cc(OC)ccc23)CN1C(=O)[C@@H](O)c1ccccc1)C(=O)NS(=O)(=O)C1CC1 [Example 4,Compound 1] | 100 to 1000 nM |  | > 5000 nM |
| C=C[C@@H]1C[C@]1(NC(=O)[C@@H]1C[C@@H](Oc2ncnc3ccccc23)CN1C(=O)[C@@H](OC(=O)NC(C)(C)C)C(C)(C)C)C(=O)NS(=O)(=O)C1CC1 [Example 57Compound 57] | 100 to 1000 nM |  | 500 to 5000 nM |
| C=C[C@@H]1C[C@]1(NC(=O)[C@@H]1C[C@@H](Oc2nccc3ccccc23)CN1C(=O)[C@@H](OC(=O)Nc1ccccc1OC)C(C)(C)C)C(=O)NS(=O)(=O)C1CC1 [Example 29] | 100 to 1000 nM |  | 500 to 5000 nM |
| C=C[C@@H]1C[C@]1(NC(=O)[C@@H]1C[C@@H](Oc2cc(-c3ccccc3)nc3cc(OC)ccc23)CN1C(=O)C1CC1)C(=O)NS(=O)(=O)C1CC1 [Example 19] | 100 to 1000 nM |  |  |
| C=CCCCCCC(O)C(=O)N1C[C@H](Oc2nc(-c3ccccc3)cc3cc(OC)ccc23)CC1C(=O)N[C@]1(C(=O)NS(=O)(=O)C2CC2)CC1C=C (stereo partly shown) [Example 21] | 100 to 1000 nM |  |  |
